Laboratory results from patent US9883997B2, “Cosmetic compositions with tricyclodecane amides” (Conopco, Inc., priority 2013, dated 2018).

Assays:
[1] = Precursor cosmetic compositions evaluated for crystals content, i.e. solubility of solid agent in the liquid agent (Example 29); type: physicochemical
Method: The following precursor cosmetic compositions were prepared and evaluated for crystals content, i.e. solubility of solid agent in the liquid agent.
The composition is heated to a temperature above the melting point of the highest melting compound, then allowed to cool to room temperature. […] In the case of end use cosmetic compositions visualization of the crystals of solid agent was done by comparing a sample with and without tricyclodecane amide and observing the formation of crystals, if any, under the optical microscope fitted with cross-polarizers at a magnification of 10× or higher.

[2] = solid cosmetic agents, Table 1; cited from earlier work

## CC(C)CCC[C@@H](C)[C@H]1CC[C@H]2[C@@H]3CC=C4C[C@@H](O)CC[C@]4(C)[C@H]3CC[C@]12C [cholesterol]
[1]; Cholesterol (16%) in OMC (84%), [S]/[L] 0.2, no tricyclodecaneamide, 24 hours
  Appearance after cooling - observation at 24 hours, except as noted: crystal + liquid
[1]; Cholesterol (20%) in conjugated linoleic acid (80%), [S]/[L] 0.2, no tricyclodecaneamide, 24 hours
  Appearance after cooling - observation at 24 hours, except as noted: crystals + liquid
[1]; Cholesterol (20%) in retinol proprionate (80%), [S]/[L] 0.3, no tricyclodecaneamide, observation at 12 hours
  Appearance after cooling - observation at 24 hours, except as noted: opaque solid
[2]
  Log Po/w: 9.62
